Data set [1] can be described thus: Prevalence of adverse effects in randomised placebo controlled trials (treated minus control). The data set is classed as in vivo, human. To be noted: daily dose: hydrochlorothiazide 12.5 mg, atenolol 25 mg, enalapril 5 mg, aspirin 75 mg; for Prevalence of any adverse effect in randomised trials (treated minus control) / Prevalence of serious adverse effects (those that warranted withdrawal from randomised trial) (treated minus control): atorvastatin 10 mg, folic acid 0.8 mg. The text has this: The dose of each medication has been chosen to maximise the ratio of benefit to hazard. It is recognised that some persons taking a combination of six drugs would develop adverse effects that were unacceptable. The adverse effects attributable to each of the component medications would be made clear to persons taking the combined formulation and alternative formulations omitting one or more of the component ingredients, with or without a substitute ingredient, would be available for persons unable to tolerate one component. […]

For data set [2] the following is noted: randomised trials, high risk and low risk persons; platelet function not measured; cited from earlier work.
A short description of data set [3]: Expected reduction in risk of stroke from the risk factor change (cohort studies and randomised trials). Format: in vivo, human. Conditions: daily dose: hydrochlorothiazide 12.5 mg, atenolol 25 mg, enalapril 5 mg, atorvastatin 10 mg, aspirin 75 mg, folic acid 0.8 mg. The source says: This combined estimate is based on the fact that the effects on the four different risk factors are unrelated and so the expected effects of changing each one will be independent of each other. This expectation is supported by two classes of evidence. […] For example the ratio of the risk of a disease event in persons with high blood pressure and the risk in persons with low blood pressure is similar, irrespective of the values of serum cholesterol and other risk factors. Second, some randomised clinical trials have used combinations of two of the drugs (for example beta blockers and aspirin) in patients with ischaemic heart disease and have shown that the effects are independent (that is, the relative risk in patients who took two drugs (compared with the risk in those who took none) was similar to the relative risk in persons taking one of the drugs multiplied by the relative risk in persons taking the other drug). Accordingly, the effect of the different drugs in combination in Table 3 has been calculated by multiplying the effects of each as shown in footnotes h and j.
The corresponding reductions in incidence of ischaemic heart disease and stroke are those to be expected from the blood pressure reductions, from published analyses of cohort studies and randomised controlled trials of blood pressure and ischaemic heart disease and stroke (references 1, 5).

For data set [4] the following is noted: atorvastatin 10 mg daily; cited from earlier work.
Data set [5] is described as follows: Randomised controlled trials of folic acid: plasma homocysteine reduction. Conditions: unpublished randomised controlled trial performed by the applicant. The data set is classed as in vivo, human.
The conditions of data set [6]: cited from earlier work.

Marks after values point to notes of the source that are not given here.

As to `CC(=O)Oc1ccccc1C(=O)O` [Aspirin], in data set [1], the “Prevalence of any adverse effect in randomised trials (treated minus control)” value amounted to 1.8%^b and the “Prevalence of serious adverse effects (those that warranted withdrawal from randomised trial) (treated minus control)” value is 0.7%^b. Also, the “Effect on the incidence of heart attacks and stroke” value in data set [2] is “reduces the incidence of heart attacks and stroke in both high risk and low risk persons”.
Regarding `CC(C)NCC(O)COc1ccc(CC(N)=O)cc1` (centres unmarked) [Atenolol], in data set [1], the “Prevalence of any adverse effect in randomised trials (treated minus control)” value stood at 5.6%^a and the “Prevalence of serious adverse effects (those that warranted withdrawal from randomised trial) (treated minus control)” value is given as 0.9%^a.
Turning to `CCOC(=O)[C@H](CCc1ccccc1)N[C@@H](C)C(=O)N1CCC[C@H]1C(=O)O` [Enalapril], in data set [1], the Commonest adverse effects result is listed as “cough”, the “Prevalence of any adverse effect in randomised trials (treated minus control)” value is 2.1%^a and the “Prevalence of serious adverse effects (those that warranted withdrawal from randomised trial) (treated minus control)” value stood at 0.2%^a.
Turning to `NS(=O)(=O)c1cc2c(cc1Cl)NCNS2(=O)=O` [Hydrochlorothiazide], in data set [1], the “Prevalence of any adverse effect in randomised trials (treated minus control)” value came to 1.4%^a and the “Prevalence of serious adverse effects (those that warranted withdrawal from randomised trial) (treated minus control)” value is listed as 0.1%^a.
Turning to `CC(C)c1c(C(=O)Nc2ccccc2)c(-c2ccccc2)c(-c2ccc(F)cc2)n1CC[C@@H](O)C[C@@H](O)CC(=O)O` [Atorvastatin], in data set [3], the “Expected reduction in risk of stroke” value is 50%^d. In data set [1], the “Prevalence of any adverse effect in randomised trials (treated minus control)” value amounted to 0.1% and the “Prevalence of serious adverse effects (those that warranted withdrawal from randomised trial) (treated minus control)” value is given as less than 0.1%. In data set [4], the “Associated physiological variable (reduction produced by drug): serum cholesterol” value is listed as “(1.8 mmol/l”.
With `Nc1nc2ncc(CNc3ccc(C(=O)N[C@@H](CCC(=O)O)C(=O)O)cc3)nc2c(=O)[nH]1` [Folic acid], the “Lowest folic acid dose that produces the maximum reduction in homocysteine” value in data set [5] was found to be 0.8 mg. In addition, the “Expected reduction in risk of stroke” value in data set [3] is given as 10%^g. In data set [1], the “Prevalence of any adverse effect in randomised trials (treated minus control)” value is listed as less than 0.1% and the “Prevalence of serious adverse effects (those that warranted withdrawal from randomised trial) (treated minus control)” value is listed as less than 0.1%. In data set [6] (folic acid 0.8 mg daily), the “Associated physiological variable (reduction produced by drug): plasma/serum homocysteine” value is on record as “(3 μmol/l”. Moreover, in data set [6] (meta-analysis of published trials, folic acid doses between 1 mg and 5 mg, maximum produced by 1 mg), the “Maximum reduction in plasma homocysteine” value is 3 µmol/L.
